{"source": "PubChem BioAssay AID328", "about": "(DTP/NCI, 2004)", "test_system": "BDF1 mice, P388 leukemia ip, median survival T/C", "experiment": "NCI In Vivo Anticancer Drug Screen. Data for tumor model P388 Leukemia (intraperitoneal) in B6D2F1 (BDF1) mice", "settings": "endpoint: median survival time, higher = longer survival", "method_in_brief": "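Transplantable tumour in mice; compound vs vehicle dosing; survival scored; ratio of treated to control reported.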", "note": "Where “and” joins values, the source holds several entries; their conditions need not be identical. Equal values may be shown once. Toxic doses and inconclusive results are not listed."}
{"molecule": "CC[C@]1(O)C[C@H]2CN(CCc3c([nH]c4ccccc34)[C@@](C(=O)OC)(c3cc4c(cc3OC)N(C=O)[C@H]3[C@@](O)(C(=O)OC)[C@H](OC(C)=O)[C@]5(CC)C=CCN6CC[C@]43[C@@H]65)C2)C1", "values": [{"measurement": "T/C", "setting": "dose: 0.03 mg/kg/injection, schedule: Q01DX009 (ip), vehicle: water", "result": "86 % of control"}, {"measurement": "T/C", "setting": "dose: 0.03 mg/kg/injection, schedule: Q01DX010 (ip), vehicle: saline", "result": "163 % of control and 172 % of control (2×)"}, {"measurement": "T/C", "setting": "dose: 0.06 mg/kg/injection, schedule: Q04DX003 (ip), vehicle: water", "result": "90 % of control"}, {"measurement": "T/C", "setting": "dose: 0.08 mg/kg/injection, schedule: Q01DX009 (ip), vehicle: saline", "result": "172 % of control"}, {"measurement": "T/C", "setting": "dose: 0.12 mg/kg/injection, schedule: Q01DX009 (ip), vehicle: saline", "result": "300 % of control"}, {"measurement": "T/C", "setting": "dose: 0.13 mg/kg/injection, schedule: Q01DX010 (ip), vehicle: saline", "result": "168 % of control"}, {"measurement": "T/C", "setting": "dose: 0.2 mg/kg/injection, schedule: Q01DX009 (ip), vehicle: saline", "result": "231 % of control and 277 % of control"}, {"measurement": "T/C", "setting": "dose: 0.2 mg/kg/injection, schedule: Q04DX002 (ip), vehicle: saline", "result": "163 % of control"}, {"measurement": "T/C", "setting": "dose: 0.22 mg/kg/injection, schedule: Q01DX009 (ip), vehicle: clinical formulation", "result": "245 % of control"}, {"measurement": "T/C", "setting": "dose: 0.25 mg/kg/injection, schedule: Q01DX009 (ip), vehicle: saline", "result": "275 % of control"}, {"measurement": "T/C", "setting": "dose: 0.25 mg/kg/injection, schedule: Q01DX010 (ip), vehicle: saline", "result": "240 % of control and 254 % of control and 163 % of control"}, {"measurement": "T/C", "setting": "dose: 0.3 mg/kg/injection, schedule: Q01DX009 (ip), vehicle: saline", "result": "289 % of control and 500 % of control"}, {"measurement": "T/C", "setting": "dose: 0.3 mg/kg/injection, schedule: Q04DX003 (ip), vehicle: saline", "result": "186 % of control"}, {"measurement": "T/C", "setting": "dose: 0.45 mg/kg/injection, schedule: Q01DX009 (ip), vehicle: saline", "result": "278 % of control and 336 % of control"}, {"measurement": "T/C", "setting": "dose: 0.48 mg/kg/injection, schedule: Q04DX003 (ip), vehicle: saline", "result": "232 % of control and 150 % of control"}, {"measurement": "T/C", "setting": "dose: 0.5 mg/kg/injection, schedule: Q01DX009 (ip), vehicle: saline", "result": "90 % of control"}, {"measurement": "T/C", "setting": "dose: 0.5 mg/kg/injection, schedule: Q01DX010 (ip), vehicle: saline", "result": "86 % of control and 90 % of control"}, {"measurement": "T/C", "setting": "dose: 0.5 mg/kg/injection, schedule: Q04DX003 (ip), vehicle: water", "result": "177 % of control"}, {"measurement": "T/C", "setting": "dose: 0.53 mg/kg/injection, schedule: Q04DX003 (ip), vehicle: saline", "result": "183 % of control"}, {"measurement": "T/C", "setting": "dose: 0.8 mg/kg/injection, schedule: Q04DX003 (ip), vehicle: clinical formulation", "result": "236 % of control"}, {"measurement": "T/C", "setting": "dose: 1.0 mg/kg/injection, schedule: Q01DX001 (ip), vehicle: water", "result": "153 % of control"}, {"measurement": "T/C", "setting": "dose: 1.0 mg/kg/injection, schedule: Q04DX003 (ip), vehicle: water", "result": "227 % of control"}, {"measurement": "T/C", "setting": "dose: 1.0 mg/kg/injection, schedule: Q04DX004 (ip), vehicle: saline", "result": "233 % of control"}, {"measurement": "T/C", "setting": "dose: 1.1 mg/kg/injection, schedule: Q04DX003 (ip), vehicle: saline", "result": "532 % of control and 180 % of control"}, {"measurement": "T/C", "setting": "dose: 1.2 mg/kg/injection, schedule: Q04DX003 (ip), vehicle: clinical formulation", "result": "240 % of control"}, {"measurement": "T/C", "setting": "dose: 1.3 mg/kg/injection, schedule: Q04DX003 (ip), vehicle: saline", "result": "250 % of control"}, {"measurement": "T/C", "setting": "dose: 1.5 mg/kg/injection, schedule: Q04DX004 (ip), vehicle: saline", "result": "252 % of control"}, {"measurement": "T/C", "setting": "dose: 1.56 mg/kg/injection, schedule: Q04DX002 (ip), vehicle: saline", "result": "90 % of control"}, {"measurement": "T/C", "setting": "dose: 1.65 mg/kg/injection, schedule: Q04DX003 (ip), vehicle: saline", "result": "532 % of control"}, {"measurement": "T/C", "setting": "dose: 1.8 mg/kg/injection, schedule: Q04DX003 (ip), vehicle: clinical formulation", "result": "113 % of control"}, {"measurement": "T/C", "setting": "dose: 2.0 mg/kg/injection, schedule: Q01DX001 (ip), vehicle: water", "result": "168 % of control"}, {"measurement": "T/C", "setting": "dose: 2.0 mg/kg/injection, schedule: Q04DX003 (ip), vehicle: saline", "result": "116 % of control"}, {"measurement": "T/C", "setting": "dose: 2.47 mg/kg/injection, schedule: Q04DX003 (ip), vehicle: saline", "result": "166 % of control"}, {"measurement": "T/C", "setting": "dose: 4.0 mg/kg/injection, schedule: Q01DX001 (ip), vehicle: saline", "result": "235 % of control and 163 % of control"}, {"measurement": "T/C", "setting": "dose: 4.0 mg/kg/injection, schedule: Q04DX003 (ip), vehicle: water", "result": "111 % of control"}, {"measurement": "T/C", "setting": "dose: 15.6 micrograms/kg/injection, schedule: Q03HX008 (ip), vehicle: clinical formulation", "result": "157 % of control"}, {"measurement": "T/C", "setting": "dose: 15.6 micrograms/kg/injection, schedule: Q03HX016 (ip), vehicle: clinical formulation", "result": "185 % of control"}, {"measurement": "T/C", "setting": "dose: 31.2 micrograms/kg/injection, schedule: Q03HX008 (ip), vehicle: clinical formulation", "result": "185 % of control"}, {"measurement": "T/C", "setting": "dose: 31.2 micrograms/kg/injection, schedule: Q03HX024 (ip), vehicle: clinical formulation", "result": "233 % of control"}, {"measurement": "T/C", "setting": "dose: 62.0 micrograms/kg/injection, schedule: Q03HX024 (ip), vehicle: saline", "result": "255 % of control"}, {"measurement": "T/C", "setting": "dose: 62.5 micrograms/kg/injection, schedule: Q03HX016 (ip), vehicle: clinical formulation", "result": "257 % of control"}, {"measurement": "T/C", "setting": "dose: 62.5 micrograms/kg/injection, schedule: Q04DX003 (ip), vehicle: clinical formulation", "result": "166 % of control"}, {"measurement": "T/C", "setting": "dose: 125.0 micrograms/kg/injection, schedule: Q03HX016 (ip), vehicle: clinical formulation", "result": "314 % of control"}, {"measurement": "T/C", "setting": "dose: 125.0 micrograms/kg/injection, schedule: Q03HX024 (ip), vehicle: saline", "result": "370 % of control"}, {"measurement": "T/C", "setting": "dose: 125.0 micrograms/kg/injection, schedule: Q04DX003 (ip), vehicle: clinical formulation", "result": "180 % of control"}, {"measurement": "T/C", "setting": "dose: 125.0 micrograms/kg/injection, schedule: Q08DX002 (ip), vehicle: clinical formulation", "result": "171 % of control"}, {"measurement": "T/C", "setting": "dose: 250.0 micrograms/kg/injection, schedule: Q01DX001 (ip), vehicle: clinical formulation", "result": "161 % of control"}, {"measurement": "T/C", "setting": "dose: 250.0 micrograms/kg/injection, schedule: Q01DX009 (ip), vehicle: clinical formulation", "result": "242 % of control"}, {"measurement": "T/C", "setting": "dose: 250.0 micrograms/kg/injection, schedule: Q03HX008 (ip), vehicle: clinical formulation", "result": "247 % of control"}, {"measurement": "T/C", "setting": "dose: 250.0 micrograms/kg/injection, schedule: Q03HX024 (ip), vehicle: saline", "result": "90 % of control"}, {"measurement": "T/C", "setting": "dose: 250.0 micrograms/kg/injection, schedule: Q08DX002 (ip), vehicle: clinical formulation", "result": "176 % of control"}, {"measurement": "T/C", "setting": "dose: 360.0 micrograms/kg/injection, schedule: Q04DX003 (ip), vehicle: saline", "result": "182 % of control"}, {"measurement": "T/C", "setting": "dose: 432.0 micrograms/kg/injection, schedule: Q04DX003 (ip), vehicle: saline", "result": "249 % of control"}, {"measurement": "T/C", "setting": "dose: 500.0 micrograms/kg/injection, schedule: Q01DX001 (ip), vehicle: clinical formulation", "result": "152 % of control"}, {"measurement": "T/C", "setting": "dose: 500.0 micrograms/kg/injection, schedule: Q03HX016 (ip), vehicle: clinical formulation", "result": "123 % of control"}, {"measurement": "T/C", "setting": "dose: 500.0 micrograms/kg/injection, schedule: Q04DX003 (ip), vehicle: clinical formulation", "result": "228 % of control"}, {"measurement": "T/C", "setting": "dose: 500.0 micrograms/kg/injection, schedule: Q04DX003 (ip), vehicle: saline", "result": "248 % of control"}, {"measurement": "T/C", "setting": "dose: 500.0 micrograms/kg/injection, schedule: Q08DX002 (ip), vehicle: clinical formulation", "result": "180 % of control"}, {"measurement": "T/C", "setting": "dose: 540.0 micrograms/kg/injection, schedule: Q04DX003 (ip), vehicle: saline", "result": "240 % of control and 272 % of control"}, {"measurement": "T/C", "setting": "dose: 600.0 micrograms/kg/injection, schedule: Q01DX009 (ip), vehicle: saline", "result": "120 % of control"}, {"measurement": "T/C", "setting": "dose: 600.0 micrograms/kg/injection, schedule: Q04DX003 (ip), vehicle: saline", "result": "250 % of control and 182 % of control"}, {"measurement": "T/C", "setting": "dose: 648.0 micrograms/kg/injection, schedule: Q04DX003 (ip), vehicle: saline", "result": "254 % of control"}, {"measurement": "T/C", "setting": "dose: 720.0 micrograms/kg/injection, schedule: Q04DX003 (ip), vehicle: saline", "result": "225 % of control and 291 % of control"}, {"measurement": "T/C", "setting": "dose: 900.0 micrograms/kg/injection, schedule: Q04DX003 (ip), vehicle: saline", "result": "280 % of control and 322 % of control"}, {"measurement": "T/C", "setting": "dose: 1000.0 micrograms/kg/injection, schedule: Q04DX003 (ip), vehicle: clinical formulation", "result": "571 % of control"}, {"measurement": "T/C", "setting": "dose: 1000.0 micrograms/kg/injection, schedule: Q08DX002 (ip), vehicle: clinical formulation", "result": "228 % of control"}, {"measurement": "T/C", "setting": "dose: 1080.0 micrograms/kg/injection, schedule: Q04DX003 (ip), vehicle: saline", "result": "292 % of control"}, {"measurement": "T/C", "setting": "dose: 1200.0 micrograms/kg/injection, schedule: Q04DX003 (ip), vehicle: saline", "result": "225 % of control and 116 % of control"}, {"measurement": "T/C", "setting": "dose: 1500.0 micrograms/kg/injection, schedule: Q04DX003 (ip), vehicle: saline", "result": "278 % of control and 320 % of control"}, {"measurement": "T/C", "setting": "dose: 1800.0 micrograms/kg/injection, schedule: Q04DX003 (ip), vehicle: saline", "result": "294 % of control"}, {"measurement": "T/C", "setting": "dose: 2000.0 micrograms/kg/injection, schedule: Q04DX003 (ip), vehicle: clinical formulation", "result": "95 % of control"}, {"measurement": "T/C", "setting": "dose: 2000.0 micrograms/kg/injection, schedule: Q08DX002 (ip), vehicle: clinical formulation", "result": "300 % of control"}, {"measurement": "T/C", "setting": "dose: 4000.0 micrograms/kg/injection, schedule: Q01DX001 (ip), vehicle: clinical formulation", "result": "233 % of control"}, {"measurement": "T/C", "setting": "dose: 4000.0 micrograms/kg/injection, schedule: Q08DX002 (ip), vehicle: clinical formulation", "result": "238 % of control"}]}
